In patent US20260138981A1, “DIHYDROFOLATE REDUCTASE INHIBITORS FOR ANTI-BIOTIC RESISTANT INFECTIONS” (THE TRUSTEES OF PRINCETON UNIVERSITY, priority 2022, published 2026):

Assays:
[1] = system: folate metabolism in P. aeruginosa; test: Metabolomics (LC-MS metabolite abundance); format: cell-based; conditions: PA14, 2×MIC for 15 min, vs solvent control; P=0.0186 and 0.0196
Method: Metabolite abundance was quantified in comparison to the solvent only control. Data represents mean±SD for 3 biological replicates. P values were calculated using unpaired t-test using Prism 9 (P values≤0.05)
To test the ability of fluorofolin to inhibit P. aeruginosa DHFR in vivo, metabolomics were performed. As a positive control for DHFR inhibition, we turned to TMP.
Overnight P. aeruginosa PA14 cultures were diluted 1:150 in Gutnick Minimal Media and grown to early-mid exponential phase (OD600=0.4-0.6).
LC-MS analysis of metabolites was performed on Orbitrap Exploris 240 mass spectrometer coupled with hydrophilic interaction liquid chromatography (HILIC)^64. […] Flow rate was 0.15 mL/min, and column temperature was set at 25° C. […] The orbitrap resolution was 180,000 at m/z of 200. The maximum injection time was 200 ms, and the automatic gain control (AGC) target was 1000%. Raw mass spectrometry data were converted to mzXML format by MSConvert (ProteoWizard). Pick-peaking was done on El Maven (v0.8.0, Elucidata).

P. aeruginosa PA14 = test: MIC in LB Broth; format: cell-based; conditions: Pseudomonas aeruginosa; P. aeruginosa PA14, compound alone
Method: The minimum inhibitory concentration is defined as the lowest concentration of antibiotic at which no visible growth was detected after 16 hours at 37° C. Overnight cultures were diluted 1:150 in LB Broth and added to a 96-well plate. Antibiotics were serially diluted 1:2 and added to columns of the 96-well plate and grown at 37° C. with continuous shaking. Cell growth was measured by optical density (OD600). MIC assays were performed in either BioTek Synergy HT (Winooski, VT) or Tecan InfiniteM200 Pro (Männedorf, CH) microplate readers.

[2] = system: PA14 mutants with disruptions in mexA, mexB and oprM; test: MIC against MexAB-OprM transposon mutants; format: cell-based, P. aeruginosa; conditions: oprM transposon mutants vs wildtype PA14
Method: FIG. 1I is the minimum inhibitory concentration of fluorofolin or trimethoprim against transposon mutants for each component of the MexAB-OprM efflux pump. MIC against wildtype PA14 was calculated to control for each drug stock. MIC values are representative of two independent replicates.
P. aeruginosa PA14 transposon mutants were generated by the Ausubel Lab (http://ausubellab.mgh.harvard.edu/cgi-bin/pa14/home.cgi). The MICs of fluorofolin and TMP against strains with disrupted MexA, MexB, and OprM were determined as above and compared to the parental strain. As transposon mutants in MexB were represented twice in this collection, the MIC was confirmed across both mutant strains.

[3] = system: P. aeruginosa PA14 nfxB T39P mutants; test: Cross resistance of fluorofolin-resistant mutant; format: cell-based; conditions: 2×MIC
Source text: NfxB is a transcriptional regulator protein that represses expression of the MexCD-OprN efflux pump.

SMILES | abundance of AICAR and dUMP [1] | MIC (P. aeruginosa PA14) [µg/mL] | change of MIC in efflux pump mutants [2] | resistance of nfxB T39P mutants [3]
COc1cc(Cc2cnc(N)nc2N)cc(OC)c1OC [trimethoprim, reference compound] | significant upregulation | 125 | large reductions in MIC | –
O=C(O)c1cn(C2CC2)c2cc(N3CCNCC3)c(F)cc2c1=O [ciprofloxacin] | – | – | – | cross-resistant
